Data as given in patent publication US10857180B2, “Pharmaceutical composition for improving health, cure abnormalities and degenerative disease, achieve anti-aging effect of therapy and therapeutic effect on mammals and method thereof” (priority 2014, dated 2020).
Marks after values point to notes of the source that are not given here.

Tests used:
[1] = system: Ehrlich ascites carcinoma (EAC); assay: Ehrlich ascites carcinoma (EAC) mouse model; assay type: in vivo
From the text: 10 male outbred mice (5 mice per group) at the age of 10 weeks, weighing 19-23 g were used in Ehrlich ascites carcinoma (EAC) model. Before the experiment, all the animals were healthy, with normal behavioral performance. During the experiment, the animals were kept in plastic cages under natural light illumination, on a standard diet with free access to food and water. An ascites strain of mouse breast cancer (EAC) maintained in outbred mice was used in the experiment. To inoculate the strain, the tumor cells derived from the ascitic fluid were placed in saline solution. The suspension cellularity was evaluated in the hemocytometer and adjusted to a concentration of 1×10^6 cells/ml with saline solution. The tumor was transplanted by injecting […] of the tumor cell suspension (0.25×10^6 cells/mouse) into the abdominal cavity of the animals.
The animals were divided into groups as follows: • Group No 1—control group, mice with EAC+solvent (deuterium-depleted water (this water contains deuterium at a level of 10 ppm)); • Group No 2−mice with EAC+^64Zne aspartate.
The solution comprising ^64Zne aspartate was injected intraperitoneally using a microinjection syringe at a dose of 0.075 mg (75 μg)/mouse every other day (5 times during 10 days) starting from the first day after injection in a volume of 0.5 ml/mouse. […] On the 13th day after i.p. inoculation of tumor cells, the whole ascites fluid was recovered from the animals and the total number of live/dead cells in each mouse was determined. Deuterium-depleted water alone was used instead of a solution of ^64Zne aspartate as control in the experiment.
The dynamics of formation of ascites in the control and experimental groups was assessed visually using a 10-point scale (one point was 0.46 cm of the mean diameter of the mouse abdomen filled with ascites).
In addition, on the 13th day after intraperitoneal inoculation of tumor cells, all ascetic fluid was removed from the abdomens in all animals from each group by washing their peritoneal cavities with saline solution and live and dead tumor cells were counted using the traditional vital dye trypan blue (HyClon, USA) and a hemocytometer.
The number of cells was determined using the following formula: X=((a)/80)×10^6, where X is the number of cells in 1 ml and a is the number of cells counted in 80 small squares of the hemocytometer.

[2] = system: normal rat kidney cells (NRK line); assay: Immunocytochemistry of NRK cells; assay type: cell-based
Procedure: When making the immunocytochemistry (ICC) assay, cells on microscope glasses (cytospin preparations) were fixed in the solution (methanol+acetone 1:1) for 2 hours at t 20° C. and incubated with 1% solution of bovine serum albumin (BSA) for 20 minutes. Then the monoclonal antibodies-CD44 (Diagnostic BioSystems), E-cadherin (ThermoScientific), N-cadherin (NeoMarker, BioLegend), SLUG (GeneTex)—were applied for the time period specified by the manufacturer (30 to 60 minutes), after which the Poly Vue imaging system conjugated with peroxidase was used and the enzyme activity was detected using diaminobenzidine (ThermoScientific) as a substrate. After the immunocytochemical reaction the preparations were washed with water and counterstained with hematoxylin-eosin (for 15 to 30 seconds).
The results were analyzed by counting cells with expression (brown colored cells) using a light microscope, and were assessed using the classical H-Score method: S=1×A+2×B+3×C, where S is the H-Score index giving a range of 0 (protein is not detected) to 300 (high-level expression in 100% of the cells); A is the percentage of weakly staining cells, B is the percentage of moderately staining cells and C is the percentage of strongly staining cells.

SMILES	suppression of growth of Ehrlich ascites carcinoma ([1]; after 5 injections) [%]	Volume of ascites in mice ([1]; day 7 after inoculation, 75 μg/mouse i.p. every other day x5)	Volume of ascites in mice ([1]; day 9, 75 μg/mouse i.p. x5)	Volume of ascites in mice ([1]; day 11, 75 μg/mouse i.p. x5)	Number of dead cells/mouse ([1]; day 13, 75 μg/mouse i.p.)	Number of live cells/mouse (M ± m) ([1]; day 13, 75 μg/mouse i.p.)	Volume of ascites (M ± m) ([1]; day 13, 75 μg/mouse i.p.)	Volume of ascites in mice ([1]; day 13, 75 μg/mouse i.p. x5)	phenotype of normal cells [2]
NC(CC(=O)[O-])C(=O)[O-].[64Zn+2] (racemic) [^64Zne aspartate, ^64Zn aspartate (racemic)]	100	0* points	0** points	0* points	0	0* cells/mouse	0* ml/mouse	0** points	–
O=S(=O)([O-])[O-].[64Zn+2] [^64Zn]	–	–	–	–	–	–	–	–	has not changed
